This note sets out measurements from US9156877B2, “17-hydroxy-17-pentafluorethyl-estra-4,9(10)-dien-11-benzylidene derivatives, methods for the production thereof and use thereof for treating diseases” (Bayer Intellectual Property GmbH, priority 2009, dated 2015).

Each structure is given as a SMILES string.

The target in experiment [1] is T1, human progesterone receptor B (Homo sapiens, UniProt P06401).
T1 construct: expressed in transfected cells; host or cells: SK-N-MC human neuroblastoma cells, stably transfected with pRChPR-B-neo and pMMTV-LUC
T1 sequence (P06401 1-933): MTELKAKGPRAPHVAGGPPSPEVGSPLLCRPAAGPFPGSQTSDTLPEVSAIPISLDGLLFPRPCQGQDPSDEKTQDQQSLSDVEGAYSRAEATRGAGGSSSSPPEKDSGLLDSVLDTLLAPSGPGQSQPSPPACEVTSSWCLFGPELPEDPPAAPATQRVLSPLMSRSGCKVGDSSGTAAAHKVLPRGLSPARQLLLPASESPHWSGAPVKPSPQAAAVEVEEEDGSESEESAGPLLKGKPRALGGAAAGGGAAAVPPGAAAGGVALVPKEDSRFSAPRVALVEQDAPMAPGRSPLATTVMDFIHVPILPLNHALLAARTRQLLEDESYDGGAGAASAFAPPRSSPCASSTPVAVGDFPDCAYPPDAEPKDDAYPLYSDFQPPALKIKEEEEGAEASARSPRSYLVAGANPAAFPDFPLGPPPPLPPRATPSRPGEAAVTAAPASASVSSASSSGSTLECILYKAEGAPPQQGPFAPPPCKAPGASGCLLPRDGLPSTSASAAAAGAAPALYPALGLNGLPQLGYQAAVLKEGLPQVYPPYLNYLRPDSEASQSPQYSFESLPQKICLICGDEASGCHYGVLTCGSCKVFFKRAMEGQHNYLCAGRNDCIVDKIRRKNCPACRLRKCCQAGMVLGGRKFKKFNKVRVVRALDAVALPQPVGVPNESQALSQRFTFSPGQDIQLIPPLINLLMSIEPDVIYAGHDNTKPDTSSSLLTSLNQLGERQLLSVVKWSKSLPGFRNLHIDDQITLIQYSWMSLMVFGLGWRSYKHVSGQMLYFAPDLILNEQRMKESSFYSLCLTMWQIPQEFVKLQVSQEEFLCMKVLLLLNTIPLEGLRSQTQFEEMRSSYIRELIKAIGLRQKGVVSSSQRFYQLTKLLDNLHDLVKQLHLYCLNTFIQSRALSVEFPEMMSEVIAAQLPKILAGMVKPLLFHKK
The experiment can be described thus: Progesterone receptor-antagonistic action in stably transfected SK-N-MC cells with MMTV-LUC reporter (PR-B). The conditions noted are these: antagonistic potency against 0.1 nmol/l promegestone, 24 hours, luciferase. It is filed as cell-based. Here is the method: (§1) Determination of Progesterone Receptor-Antagonistic Action in Stable Transfectants of Human Neuroblastoma Cells (SK-N-MC Cells) with the Human Progesterone A or Progesterone B Receptor and an MN-LUC Reporter Construct
(§2) SK-N-MC cells (human neuroblastoma cells) which have been stably transfected with plasmids expressing the human progesterone receptor B (pRChPR-B-neo) or the human progesterone receptor A (pRChPR-A-neo) and a reporter construct (pMMTV-LUC) were incubated for 24 hours either in the absence (negative control) or in the presence of ascending amounts of the particular test compound (0.01 nmol/l, 0.1 nmol/l, 1 nmol/l, 10 nmol/l, 100 nmol/l and […]), in order to determine the agonistic efficacy. As a positive control of the reporter gene induction, the cells were treated with the synthetic gestagen promegestone (0.01 nmol/l, 0.1 nmol/l, 1 nmol/l, 10 nmol/l, 100 nmol/l and […]). To determine the antagonistic activity, the cells were treated with 0.1 nmol/l promegestone and additionally with ascending amounts of the particular test compound (0.01 nmol/l, 0.1 nmol/l, 1 nmol/l, 10 nmol/l, 100 nmol/l and […]). The activity of the reporter gene LUC (LUC=luciferase) was determined in the cell lysates and measured as RLU (relative light units). All measurements are reported as % efficacy and as EC50 and IC50 concentrations.

Experiment [2] concerns the target T2, human progesterone receptor A (Homo sapiens, UniProt P06401).
T2 construct: expressed in transfected cells; host or cells: SK-N-MC human neuroblastoma cells, stably transfected with pRChPR-A-neo and pMMTV-LUC
T2 sequence (P06401 1-769 isoform P06401-2): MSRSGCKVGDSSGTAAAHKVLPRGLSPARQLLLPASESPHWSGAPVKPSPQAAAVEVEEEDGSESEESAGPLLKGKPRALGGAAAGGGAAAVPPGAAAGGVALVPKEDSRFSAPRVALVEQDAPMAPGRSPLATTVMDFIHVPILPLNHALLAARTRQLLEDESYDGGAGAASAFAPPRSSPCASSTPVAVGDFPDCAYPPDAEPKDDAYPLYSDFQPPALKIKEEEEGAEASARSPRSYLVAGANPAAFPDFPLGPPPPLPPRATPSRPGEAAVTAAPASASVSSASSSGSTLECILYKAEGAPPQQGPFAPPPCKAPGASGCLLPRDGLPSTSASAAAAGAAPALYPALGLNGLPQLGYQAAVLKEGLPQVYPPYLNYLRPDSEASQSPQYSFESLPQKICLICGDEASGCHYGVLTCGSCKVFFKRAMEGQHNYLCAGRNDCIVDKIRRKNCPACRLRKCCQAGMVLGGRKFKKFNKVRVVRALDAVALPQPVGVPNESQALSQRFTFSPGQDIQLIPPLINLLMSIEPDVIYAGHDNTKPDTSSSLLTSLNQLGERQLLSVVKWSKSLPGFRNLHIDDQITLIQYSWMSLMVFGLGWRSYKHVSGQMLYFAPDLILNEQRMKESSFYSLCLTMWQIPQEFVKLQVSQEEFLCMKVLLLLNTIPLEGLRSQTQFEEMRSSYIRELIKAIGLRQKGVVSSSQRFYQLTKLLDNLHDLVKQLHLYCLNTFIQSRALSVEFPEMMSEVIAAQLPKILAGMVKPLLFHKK
The experiment can be described thus: Progesterone receptor-antagonistic action in stably transfected SK-N-MC cells with MMTV-LUC reporter (PR-A). The experiment is classed as cell-based. The following applies: antagonistic potency against 0.1 nmol/l promegestone, 24 hours, luciferase. The method, then: as §1, §2

As for `COc1ccc(C/C=C/c2ccc([C@H]3C[C@@]4(C)[C@@H](CC[C@@]4(O)C(F)(F)C(F)(F)F)[C@@H]4CCC5=CC(=O)CCC5=C43)cc2)cc1` [Example 3, (8S,11R,13S,14S,17S)-17-hydroxy-11-{4-[(E)-3-(4-methoxyphenyl)-propenyl]phenyl}-13-methyl-17-pentafluoroethyl-1,2,6,7,8,11,12,13,14,15,16,17-dodecahydrocyclopenta[a]phenanthren-3-one], the results for the IC50 in experiment [1] and in experiment [2] were 1.8 nM and 1.5 nM, respectively. The corresponding values for `COC(=O)C(C/C=C/c1ccc([C@H]2C[C@@]3(C)[C@@H](CC[C@@]3(O)C(F)(F)C(F)(F)F)[C@@H]3CCC4=CC(=O)CCC4=C32)cc1)C(=O)OC` [Example 4, 2-{(E)-3-[4-((8S,11R,13S,14S,17S)-17-hydroxy-13-methyl-3-oxo-17-pentafluoroethyl-2,3,6,7,8,11,12,13,14,15,16,17-dodecahydro-1H-cyclopenta[a]phenanthren-11-yl)phenyl]allyl}malonic acid dimethyl ester] are 1.1 nM and 1 nM.

For `C=C(C)c1ccc([C@H]2C[C@@]3(C)[C@@H](CC[C@@]3(O)C(F)(F)C(F)(F)F)[C@@H]3CCC4=CC(=O)CCC4=C32)cc1` [Example 11, (8S,11R,13S,14S,17S)-17-hydroxy-11-(4-isopropenylphenyl)-13-methyl-17-pentafluoroethyl-1,2,6,7,8,11,12,13,14,15,16,17-dodecahydrocyclopenta[a]phenanthren-3-one], in experiment [1], the 50% inhibitory concentration (IC50) was 0.012 nM.

With `CCOC(=O)/C=C/c1ccc([C@H]2C[C@@]3(C)[C@@H](CC[C@@]3(O)C(F)(F)C(F)(F)F)[C@@H]3CCC4=CC(=O)CCC4=C32)cc1` [Example 12, (E)-3-[4-((8S,11R,13S,14S,17S)-17-hydroxy-13-methyl-3-oxo-17-pentafluoroethyl-2,3,6,7,8,11,12,13,14,15,16,17-dodecahydro-1H-cyclopenta[a]phenanthren-11-yl)phenyl]acrylic acid ethyl ester], the IC50 in experiment [1] came out at 0.26 nM; in experiment [2], 0.13 nM. For `CCOC(=O)/C=C/C=C/c1ccc([C@H]2C[C@@]3(C)[C@@H](CC[C@@]3(O)C(F)(F)C(F)(F)F)[C@@H]3CCC4=CC(=O)CCC4=C32)cc1` [Example 15, (2E,4E)-5-[4-((8S,11R,13S,14S,17S)-17-hydroxy-13-methyl-3-oxo-17-pentafluoroethyl-2,3,6,7,8,11,12,13,14,15,16,17-dodecahydro-1H-cyclopenta[a]phenanthren-11-yl)phenyl]penta-2,4-dienoic acid ethyl ester], the IC50 is less than 0.01 nM in experiment [1] and 0.011 nM in experiment [2]. Turning to `C=Cc1cccc([C@H]2C[C@@]3(C)[C@@H](CC[C@@]3(O)C(F)(F)C(F)(F)F)[C@@H]3CCC4=CC(=O)CCC4=C32)c1` [Example 19, (8S,11R,13S,14S,17S)-17-hydroxy-13-methyl-17-pentafluoroethyl-11-(3-vinylphenyl)-1,2,6,7,8,11,12,13,14,15,16,17-dodecahydrocyclopenta[a]phenanthren-3-one], the IC50 in experiment [1] and in experiment [2] was 3 nM throughout. For `C=C(C)c1cccc([C@H]2C[C@@]3(C)[C@@H](CC[C@@]3(O)C(F)(F)C(F)(F)F)[C@@H]3CCC4=CC(=O)CCC4=C32)c1` [Example 20, (8S,11R,13S,14S,17S)-17-hydroxy-11-(3-isopropenylphenyl)-13-methyl-17-pentafluoroethyl-1,2,6,7,8,11,12,13,14,15,16,17-dodecahydrocyclopenta[a]phenanthren-3-one], the results for the concentration for half-maximal inhibition (IC50) in experiment [1] and in experiment [2] were 11 nM and 9 nM, respectively. The corresponding values for `Cc1nc(/C=C/c2cccc([C@H]3C[C@@]4(C)[C@@H](CC[C@@]4(O)C(F)(F)C(F)(F)F)[C@@H]4CCC5=CC(=O)CCC5=C43)c2)cs1` [Example 24, (8S,11R,13S,14S,17S)-17-hydroxy-13-methyl-11-{3-[(E)-2-(2-methylthiazol-4-yl)vinyl]phenyl}-17-pentafluoroethyl-1,2,6,7,8,11,12,13,14,15,16,17-dodecahydrocyclopenta[a]phenanthren-3-one] are 1 nM and 1 nM. In the case of `Cc1nc2cc(/C=C/c3cccc([C@H]4C[C@@]5(C)[C@@H](CC[C@@]5(O)C(F)(F)C(F)(F)F)[C@@H]5CCC6=CC(=O)CCC6=C54)c3)ccc2s1` [Example 25, (8S,11R,13S,14S,17S)-17-hydroxy-13-methyl-11-{3-[(E)-2-(2-methylbenzothiazol-5-yl)vinyl]phenyl}-17-pentafluoroethyl-1,2,6,7,8,11,12,13,14,15,16,17-dodecahydrocyclopenta[a]phenanthren-3-one], the results for the half-inhibitory concentration (IC50) in experiment [1] and in experiment [2] were 2 nM and 1 nM, respectively. For `C[C@]12C[C@H](c3ccc(/C=C/CNC(=O)Nc4ccccc4)cc3)C3=C4CCC(=O)C=C4CC[C@H]3[C@@H]1CC[C@@]2(O)C(F)(F)C(F)(F)F` [Example 42, 1-{(E)-3-[4-((8S,11R,13S,14S,17S)-17-hydroxy-13-methyl-3-oxo-17-pentafluoroethyl-2,3,6,7,8,11,12,13,14,15,16,17-dodecahydro-1H-cyclopenta[a]phenanthren-11-yl)phenyl]allyl}-3-phenylurea], half-maximal inhibition in experiment [2] (IC50) required 0.1 nM.

Molecule `COc1ccc(NC(=O)NC/C=C/c2ccc([C@H]3C[C@@]4(C)[C@@H](CC[C@@]4(O)C(F)(F)C(F)(F)F)[C@@H]4CCC5=CC(=O)CCC5=C43)cc2)cc1` [Example 54, 1-{(E)-3-[4-((8S,11R,13S,14S,17S)-17-hydroxy-13-methyl-3-oxo-17-pentafluoroethyl-2,3,6,7,8,11,12,13,14,15,16,17-dodecahydro-1H-cyclopenta[a]phenanthren-11-yl)phenyl]allyl}-3-(4-methoxyphenyl)urea] yielded an IC50 in experiment [2] of 0.1 nM. Still for that read-out and setting: the result for `C[C@]12C[C@H](c3ccc(/C=C/CNC(=O)Nc4ccc(N5CCCCC5)cc4)cc3)C3=C4CCC(=O)C=C4CC[C@H]3[C@@H]1CC[C@@]2(O)C(F)(F)C(F)(F)F` [Example 58, 1-{(E)-3-[4-((8S,11R,13S,14S,17S)-17-hydroxy-13-methyl-3-oxo-17-pentafluoroethyl-2,3,6,7,8,11,12,13,14,15,16,17-dodecahydro-1H-cyclopenta[a]phenanthren-11-yl)phenyl]allyl}-3-(4-piperidin-1-ylphenyl)urea] reads 0.5 nM.

By IC50 is commonly meant the concentration that inhibits the measured activity by half. A lower IC50 goes with greater potency in that assay.
